According to patent US8222231B2, “Derivatives of partially desulphated glycosaminoglycans endowed with antiangiogenic activity and devoid of anticoagulating effect” (Sigma-Tau Industrie Farmaceutiche Riunite SpA, priority 2000, dated 2012):
Blank lines part the entries; values can stand above or below the substance they belong to.

Assays:
[1] = Evaluation of heparin toxicity in Balb/c mice; type: in vivo; settings: 50 mg/kg and 25 mg/kg subcutaneously, q2dx5
Procedure: 20 6-week-old female Balb/c mice weighing 20 g (Harlan), divided into groups by casual randomisation, were treated with heparin sodium, as a reference, and with the compound according to the present invention called STI514. The treatment schedule was of the q2dx5 type, i.e. 5 total administrations at intervals of 2 days, administering 200 μl/mouse of 50 mg/kg/10 ml and 25 mg/kg/10 ml solutions subcutaneously.
Heparin sodium: the solution is prepared by solubilizing 160 mg of powder in 4 ml of PBS 1× pH 7.4 free of Ca^++-and Mg^++-ions; it is subdivided into aliquots of 243 μl and stored at −20° C. At the time of treatment, the solution is diluted in Ca^++-and Mg^++-free PBS (Dulbecco, modified formula) 1×, pH 7.4 so as to have the substance at final concentrations of 50 mg/kg/10 ml and 25 mg/kg/10 ml.
ST1514: the solution is prepared by solubilizing 160 mg of powder in 4 ml of Ca^++-and Mg^++-free PBS 1×, pH 7.4; it is subdivided into aliquots of 243 μl and stored at −20° C. […]
Full blood count: the appliance (Cell Analyzer 580 A, DELCON) is used according to the standard procedure described in the operating manual. […] This solution is used for the WBC reading. Solution B, on the other hand, is used for the RBC and platelet (PLT) readings. Each sample is read in duplicate.
The data obtained will be analyzed using ANOVA.

CAM = settings: in the presence of corticosteroids; compared with heparin; cited from earlier work
[2] = test system: chick embryo chorioallantoic membrane; test: Angiostatic activity on chick embryo chorioallantoic membrane (CAM) model; settings: in vivo
Procedure: For the study of angiogenesis the model used was the chick embryo chorioallantoic membrane model (Ribatti e al. Int. J. Dev. Biol., 40, 1189 (1996)).
300 embryonated hens' eggs were incubated at 37° C. in constant humidity conditions. On the 3rd day of incubation, after aspirating 2-3 ml of albumen from the acute pole of the egg so as to detach the CAM from the shell, a window was cut with scissors in the shell. The vessels underlying the CAM were thus exposed. The window was closed with a transparent glass panel and the eggs were put back into the incubator. […] The experiments were discontinued on the 12th day of incubation, when an overall assessment of the angiogenic activity of the molecules was carried out, expressed as percentage inhibition in relation to the number of experiments initiated and completed (Table 9). In addition, for compound ST1514, assayed at the concentration of 100 μg/embryo, a macroscopic quantitative evaluation of the angiostatic activity was also carried out according to the technique proposed by Brooks et al. (Science, 264, 569, (1994)), counting the number of vessels surrounding the sponge. […]

[3] = molecular target: T1, FGFR/FGF2/HSPG ternary complex (Homo sapiens, UniProt P09038); test: Inhibition of FGF2-mediated intercellular adhesion of CHO-K1 and CHO-745flg cells; type: cell-based, Chinese hamster
T1 construct: expressed in transfected cells; host or cells: CHO 745/flg (HSPG-deficient CHO mutants transfected with FGFR-1); fixed CHO-K1 monolayer supplies HSPGs; FGF-2 added to the medium
T1 sequence (P09038 143-288, one chain of several): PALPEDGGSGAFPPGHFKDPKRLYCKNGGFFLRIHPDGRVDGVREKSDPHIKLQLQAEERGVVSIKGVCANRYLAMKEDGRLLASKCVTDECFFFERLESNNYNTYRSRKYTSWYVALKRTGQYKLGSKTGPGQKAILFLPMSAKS
Text: To this end an in-vitro model was designed capable of assessing the interference of the various different heparin derivatives with bFGF binding to its own receptor.
These latter cells were stably transfected with cDNA for green fluorescent protein and for this reason could be observed under the fluorescence microscope with a combination of filters for the detection of green emission. In brief, the technique is based on the possibility that the two types of cells may interact (form stable bonds) only if FGF is added to the two cell types. In fact, in this case, the heparan sulphates of the CHO-745flg cells will bind to FGF, which in turn will bind to the CHO-K1 cells, establishing a bridge. The binding that occurs is detectable as a result of the green fluorescence emitted by the CHO-745flg cells.
CHO-K1 cells were seeded at a density of 90,000 cells/cm2 in 24-well plates. After 24 hours the cells were fixed in 3% glutaraldehyde in PBS for 2 hours at 4° C. and washed with 0.1 M glycine/PBS. […] After 2 hours' incubation at 37° C., the adhering cells were counted under the inverted microscope. The results were expressed as percentage of the number of cells adhering compared to those measured in the absence of the test compounds. […]

Substance: heparin sodium
liver characteristics at autopsy [1]: livers with abnormal characteristics

Substance: 2-O-desulfated heparin
antiangiogenic activity as assessed by means of the CAM test (CAM): partly maintained the antiangiogenic activity of heparin

Cell-Cell Adh. (ID50, ng/mL), inhibition of FGF2-mediated cell-cell adhesion [3]: 100 ng/mL
Substance: Heparin
Angiostatic activity on CAM model (stated in words) [2]: no activity
